Consider 33 compounds from patent US8846698B2, “Pyrrolo[2,3-d]pyrimidine tropomysin-related kinase inhibitors” (Pfizer Limited, priority 2011, dated 2014).

The target in this experiment is TRKA (Homo sapiens (Human), UniProt P04629). As to the kind of experiment: Isolated TRK enzyme assay (HTRF KinEASE-TK), TRKA. Format: biochemical. Particulars: read-out: Trka enzyme (IC50).
Sequence of TRKA (P04629 441-796): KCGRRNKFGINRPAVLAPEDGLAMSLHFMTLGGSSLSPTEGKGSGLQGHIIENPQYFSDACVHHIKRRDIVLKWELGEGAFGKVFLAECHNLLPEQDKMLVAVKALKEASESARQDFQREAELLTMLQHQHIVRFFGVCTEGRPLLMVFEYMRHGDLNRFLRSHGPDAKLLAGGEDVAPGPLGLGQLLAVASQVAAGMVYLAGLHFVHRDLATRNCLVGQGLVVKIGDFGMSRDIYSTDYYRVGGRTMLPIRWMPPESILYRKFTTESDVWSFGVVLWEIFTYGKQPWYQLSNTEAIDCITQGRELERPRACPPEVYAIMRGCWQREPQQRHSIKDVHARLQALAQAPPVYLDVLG
The term IC50 denotes the point on the concentration scale where inhibition reaches its midpoint. Regarding `Cn1cc(C(=O)c2cncc(NC(=O)Nc3ccc(C(F)(F)F)cc3)c2)c2cncnc21` [Example 294, 1-{5-[(7-methyl-7H-pyrrolo[2,3-d]pyrimidin-5-yl)carbonyl]pyridin-3-yl}-3-[4-(trifluoromethyl)phenyl]urea], the IC50 turned out to be 61.4 nM. The result for `Cn1cc(C(=O)c2cncc(NC(=O)Nc3cccc(C(F)(F)F)c3)c2)c2cncnc21` [Example 295, 1-{5-[(7-methyl-7H-pyrrolo[2,3-d]pyrimidin-5-yl)carbonyl]pyridin-3-yl}-3-[3-(trifluoromethyl)phenyl]urea] reads 31.9 nM; that for `Cn1cc(C(=O)c2cncc(NC(=O)Nc3ccc(OC(F)(F)F)cc3)c2)c2cncnc21` [Example 296, 1-{5-[(7-methyl-7H-pyrrolo[2,3-d]pyrimidin-5-yl)carbonyl]pyridin-3-yl}-3-[4-(trifluoromethoxy)phenyl]urea], 47.7 nM; that for `CC(C)n1cc(C(=O)c2cncc(N(C)C(=O)Cc3ccc(Cl)cc3)c2)c2cncnc21` [Example 297, 2-(4-chlorophenyl)-N-{5-[(7-isopropyl-7H-pyrrolo[2,3-d]pyrimidin-5-yl)carbonyl]pyridin-3-yl}-N-methylacetamide], 299 nM.

Consider `CC(C)n1cc(C(=O)c2cncc(N(C)C(=O)Cc3ccc(C#N)cc3)c2)c2cncnc21` [Example 298, 2-(4-cyanophenyl)-N-{5-[(7-isopropyl-7H-pyrrolo[2,3-d]pyrimidin-5-yl)carbonyl]pyridin-3-yl}-N-methylacetamide], for which the half-maximal inhibitory concentration (IC50) worked out at 1460 nM.

`O=C(Cc1ccc(Cl)cc1)Nc1cncc(C(=O)c2cn(C3(CO)COC3)c3ncncc23)c1` [Example 299, 2-(4-Chloro-phenyl)-N-{5-[7-(3-hydroxymethyl-oxetan-3-yl)-7H-pyrrolo[2,3-d]pyrimidine-5-carbonyl]-pyridin-3-yl}-acetamide]: the IC50 came to 539 nM.

On to `O=C(Cc1ccc(C(F)(F)F)cc1)Nc1cncc(C(=O)c2cn(C3(CO)COC3)c3ncncc23)c1` [Example 300, N-{5-[7-(3-Hydroxymethyl-oxetan-3-yl)-7H-pyrrolo[2,3-d]pyrimidine-5-carbonyl]-pyridin-3-yl}-2-(4-trifluoromethyl-phenyl)-acetamide], for which the IC50 is 52.2 nM. As for `O=C(Cc1ccc(Cl)cn1)Nc1cncc(C(=O)c2cn(C3(CO)COC3)c3ncncc23)c1` [Example 301, 2-(5-chloropyridin-2-yl)-N-[5-({7-[3-(hydroxymethyl)oxetan-3-yl]-7H-pyrrolo[2,3-d]pyrimidin-5-yl}carbonyl)pyridin-3-yl]acetamide], the figure is 428 nM. As for `O=C(Cn1ccc(C(F)(F)F)n1)Nc1cncc(C(=O)c2cn(C3(CO)COC3)c3ncncc23)c1` [Example 302, N-[5-({7-[3-(hydroxymethyl)oxetan-3-yl]-7H-pyrrolo[2,3-d]pyrimidin-5-yl}carbonyl)pyridin-3-yl]-2-[3-(trifluoromethyl)-1H-pyrazol-1-yl]acetamide], the figure is 156 nM. The result for `NC(=O)Cn1cc(C(=O)c2cncc(NC(=O)Cc3ccc(Cl)cc3)c2)c2cncnc21` [Example 303, N-(5-{[7-(2-amino-2-oxoethyl)-7H-pyrrolo[2,3-d]pyrimidin-5-yl]carbonyl}pyridin-3-yl)-2-(4-chlorophenyl)acetamide] reads 1220 nM; that for `CN(C)C(=O)Cn1cc(C(=O)c2cncc(NC(=O)Cc3ccc(Cl)cc3)c2)c2cncnc21` [Example 304, 2-{5-[(5-{[(4-chlorophenyl)acetyl]amino}pyridin-3-yl)carbonyl]-7H-pyrrolo[2,3-d]pyrimidin-7-yl}-N,N-dimethylacetamide], 3900 nM; that for `CNC(=O)Cn1cc(C(=O)c2cncc(NC(=O)Cc3ccc(Cl)cc3)c2)c2cncnc21` [Example 305, 2-(4-chlorophenyl)-N-[5-({7-[2-(methylamino)-2-oxoethyl]-7H-pyrrolo[2,3-d]pyrimidin-5-yl}carbonyl)pyridin-3-yl]acetamide], 2640 nM. With `O=C(Cc1ccc(Cl)cc1)Nc1cncc(C(=O)c2c[nH]c3ncncc23)c1` [Example 308, 2-(4-Chlorophenyl)-N-[5-(7H-pyrrolo[2,3-d]pyrimidin-5-ylcarbonyl)pyridin-3-yl]acetamide], the IC50 was 592 nM. Turning to `CC1(n2cc(C(=O)c3cncc(NC(=O)Cc4ccc(Cl)cc4)c3)c3cncnc32)COC1` [Example 309, 2-(4-chlorophenyl)-N-(5-{[7-(3-methyloxetan-3-yl)-7H-pyrrolo[2,3-d]pyrimidin-5-yl]carbonyl}pyridin-3-yl)acetamide], the IC50 came to 53.9 nM. The result for `CC1(n2cc(C(=O)c3cncc(NC(=O)Cc4ccc(Cl)cn4)c3)c3cncnc32)COC1` [Example 310, 2-(5-chloropyridin-2-yl)-N-(5-{[7-(3-methyloxetan-3-yl)-7H-pyrrolo[2,3-d]pyrimidin-5-yl]carbonyl}pyridin-3-yl)acetamide] reads 98.4 nM. As for `CC1(n2cc(C(=O)c3cncc(NC(=O)Cn4ccc(C(F)(F)F)n4)c3)c3cncnc32)COC1` [Example 311, N-(5-{[7-(3-methyloxetan-3-yl)-7H-pyrrolo[2,3-d]pyrimidin-5-yl]carbonyl}pyridin-3-yl)-2-[3-(trifluoromethyl)-1H-pyrazol-1-yl]acetamide], the figure is 238 nM.

On to `CC1(n2cc(C(=O)c3cncc(NC(=O)Cn4cc(C(F)(F)F)nn4)c3)c3cncnc32)COC1` [Example 312, N-(5-{[7-(3-methyloxetan-3-yl)-7H-pyrrolo[2,3-d]pyrimidin-5-yl]carbonyl}pyridin-3-yl)-2-[4-(trifluoromethyl)-1H-1,2,3-triazol-1-yl]acetamide], for which the IC50 worked out at 166 nM. As for `CS(=O)(=O)Cn1cc(C(=O)c2cncc(NC(=O)Cc3ccc(Cl)cc3)c2)c2cncnc21` [Example 314, 2-(4-chlorophenyl)-N-[5-({7-[(methylsulfonyl)methyl]-7H-pyrrolo[2,3-d]pyrimidin-5-yl}carbonyl)pyridin-3-yl]acetamide], the IC50 came to 835 nM. The result for `CC(C)n1cc(C(=O)c2cncc(NC(=O)Cc3cnn(C4CC4)c3C(F)(F)F)c2)c2cncnc21` [Example 315, 2-(1-Cyclopropyl-5-trifluoromethyl-1H-pyrazol-4-yl)-N-[5-(7-isopropyl-7H-pyrrolo[2,3-d]pyrimidine-5-carbonyl)-pyridin-3-yl]-acetamide] reads 39.1 nM. On to `Cn1cc(C(=O)c2cncc(NC(=O)Cc3ccc(Cl)cc3)c2)c2cncnc21` [Example 319, 2-(4-chlorophenyl)-N-{5-[(7-methyl-7H-pyrrolo[2,3-d]pyrimidin-5-yl)carbonyl]pyridin-3-yl}acetamide], for which the IC50 was found to be 188 nM. The result for `Cn1cc(C(=O)c2cncc(NC(=O)CCc3ccc(Cl)cc3)c2)c2cncnc21` [Example 320, 3-(4-chlorophenyl)-N-{5-[(7-methyl-7H-pyrrolo[2,3-d]pyrimidin-5-yl)carbonyl]pyridin-3-yl}propanamide] reads 3100 nM; that for `Cc1cccc(CCC(=O)Nc2cncc(C(=O)c3cn(C)c4ncncc34)c2)c1` [Example 321, 3-(3-methylphenyl)-N-{5-[(7-methyl-7H-pyrrolo[2,3-d]pyrimidin-5-yl)carbonyl]pyridin-3-yl}propanamide], 3100 nM; that for `Cn1cc(C(=O)c2cncc(NC(=O)CCc3cccnc3)c2)c2cncnc21` [Example 322, N-{5-[(7-methyl-7H-pyrrolo[2,3-d]pyrimidin-5-yl)carbonyl]pyridin-3-yl}-3-(pyridin-3-yl)propanamide], 9800 nM. Take `Cn1cc(C(=O)c2cncc(NC(=O)CCc3cccc(Cl)c3)c2)c2cncnc21` [Example 323, 3-(3-chlorophenyl)-N-{5-[(7-methyl-7H-pyrrolo[2,3-d]pyrimidin-5-yl)carbonyl]pyridin-3-yl}propanamide]: the IC50 was 3100 nM. The result for `Cn1cc(C(=O)c2cncc(NC(=O)CCc3cccc(F)c3)c2)c2cncnc21` [Example 324, 3-(3-fluorophenyl)-N-{5-[(7-methyl-7H-pyrrolo[2,3-d]pyrimidin-5-yl)carbonyl]pyridin-3-yl}propanamide] reads 3100 nM.

As to `Cn1cc(C(=O)c2cncc(NC(=O)COc3ccccc3OC(F)(F)F)c2)c2cncnc21` [Example 325, N-{5-[(7-methyl-7H-pyrrolo[2,3-d]pyrimidin-5-yl)carbonyl]pyridin-3-yl}-2-[2-(trifluoromethoxy)phenoxy]acetamide], the IC50 was determined as 111 nM. As for `Cc1ccccc1CCC(=O)Nc1cncc(C(=O)c2cn(C)c3ncncc23)c1` [Example 326, 3-(2-methylphenyl)-N-{5-[(7-methyl-7H-pyrrolo[2,3-d]pyrimidin-5-yl)carbonyl]pyridin-3-yl}propanamide], the figure is 2980 nM; as for `Cn1cc(C(=O)c2cncc(NC(=O)CCc3ccccc3F)c2)c2cncnc21` [Example 327, 3-(2-fluorophenyl)-N-{5-[(7-methyl-7H-pyrrolo[2,3-d]pyrimidin-5-yl)carbonyl]pyridin-3-yl}propanamide], 3100 nM.

With `Cn1cc(C(=O)c2cncc(NC(=O)CCc3ccc(F)cc3)c2)c2cncnc21` [Example 328, 3-(4-fluorophenyl)-N-{5-[(7-methyl-7H-pyrrolo[2,3-d]pyrimidin-5-yl)carbonyl]pyridin-3-yl}propanamide], the IC50 turned out to be 3100 nM.

Take `Cn1cc(C(=O)c2cncc(NC(=O)CCc3ccccc3)c2)c2cncnc21` [Example 329, N-{5-[(7-methyl-7H-pyrrolo[2,3-d]pyrimidin-5-yl)carbonyl]pyridin-3-yl}-3-phenylpropanamide]: the IC50 worked out at 9810 nM.

`Cc1ccc(CCC(=O)Nc2cncc(C(=O)c3cn(C)c4ncncc34)c2)cc1` [Example 330, 3-(4-methylphenyl)-N-{5-[(7-methyl-7H-pyrrolo[2,3-d]pyrimidin-5-yl)carbonyl]pyridin-3-yl}propanamide]: the half-maximal inhibitory concentration (IC50) came to 3100 nM. As for `Cn1cc(C(=O)c2cncc(NC(=O)Cc3ccc(NS(=O)(=O)C(F)(F)F)cc3)c2)c2cncnc21` [Example 331, N-{5-[(7-methyl-7H-pyrrolo[2,3-d]pyrimidin-5-yl)carbonyl]pyridin-3-yl}-2-(4-{[(trifluoromethyl)sulfonyl]amino}phenyl)acetamide], the figure is 9810 nM; as for `Cn1cc(C(=O)c2cncc(NC(=O)COc3ccccc3)c2)c2cncnc21` [Example 332, N-{5-[(7-methyl-7H-pyrrolo[2,3-d]pyrimidin-5-yl)carbonyl]pyridin-3-yl}-2-phenoxyacetamide], 2180 nM.
